Patent US20240425480A1, “NOVEL PYRIDINE DERIVATIVE COMPOUND AS RON INHIBITOR” (LG CHEM, LTD., priority 2021, published 2024)

Legend:
RON = RON (Homo sapiens, UniProt Q04912); assay: Inhibitory activity against RON, TR-FRET kinase assay; format: biochemical; settings: TR-FRET enzyme assay
Summary of the method: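 Compounds (3-fold series from a 1 mM DMSO stock) were preincubated 20–30 min at RT with RON (0.4 nM solution) in pH 7.4 HEPES, 10 mM MgCl2 buffer. A 2× cocktail of 40 uM ULight-Poly GT and 100 nM ATP was then added for 60 min at RT. After EDTA stop, Eu anti-phosphotyrosine TR-FRET (665/620 nm) was read and IC50 derived.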

cMET = cMET (Homo sapiens, UniProt P08581); assay: Inhibitory activity against MET (cMET), TR-FRET kinase assay; format: biochemical; settings: TR-FRET enzyme assay
Summary of the method: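 Human cMET (2 nM dilution) preincubated with compound 20-30 min at room temperature in HEPES pH 7.4 buffer with MnCl2/MgCl2, then 60 min with TK peptide and ATP substrate cocktail (5 uM peptide, 10 mM ATP, prepared at 2× final). EDTA-stopped; europium anti-phosphotyrosine TR-FRET read at 620/665 nm; pIC50 derived.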

Chain of cMET (P08581 25-1390): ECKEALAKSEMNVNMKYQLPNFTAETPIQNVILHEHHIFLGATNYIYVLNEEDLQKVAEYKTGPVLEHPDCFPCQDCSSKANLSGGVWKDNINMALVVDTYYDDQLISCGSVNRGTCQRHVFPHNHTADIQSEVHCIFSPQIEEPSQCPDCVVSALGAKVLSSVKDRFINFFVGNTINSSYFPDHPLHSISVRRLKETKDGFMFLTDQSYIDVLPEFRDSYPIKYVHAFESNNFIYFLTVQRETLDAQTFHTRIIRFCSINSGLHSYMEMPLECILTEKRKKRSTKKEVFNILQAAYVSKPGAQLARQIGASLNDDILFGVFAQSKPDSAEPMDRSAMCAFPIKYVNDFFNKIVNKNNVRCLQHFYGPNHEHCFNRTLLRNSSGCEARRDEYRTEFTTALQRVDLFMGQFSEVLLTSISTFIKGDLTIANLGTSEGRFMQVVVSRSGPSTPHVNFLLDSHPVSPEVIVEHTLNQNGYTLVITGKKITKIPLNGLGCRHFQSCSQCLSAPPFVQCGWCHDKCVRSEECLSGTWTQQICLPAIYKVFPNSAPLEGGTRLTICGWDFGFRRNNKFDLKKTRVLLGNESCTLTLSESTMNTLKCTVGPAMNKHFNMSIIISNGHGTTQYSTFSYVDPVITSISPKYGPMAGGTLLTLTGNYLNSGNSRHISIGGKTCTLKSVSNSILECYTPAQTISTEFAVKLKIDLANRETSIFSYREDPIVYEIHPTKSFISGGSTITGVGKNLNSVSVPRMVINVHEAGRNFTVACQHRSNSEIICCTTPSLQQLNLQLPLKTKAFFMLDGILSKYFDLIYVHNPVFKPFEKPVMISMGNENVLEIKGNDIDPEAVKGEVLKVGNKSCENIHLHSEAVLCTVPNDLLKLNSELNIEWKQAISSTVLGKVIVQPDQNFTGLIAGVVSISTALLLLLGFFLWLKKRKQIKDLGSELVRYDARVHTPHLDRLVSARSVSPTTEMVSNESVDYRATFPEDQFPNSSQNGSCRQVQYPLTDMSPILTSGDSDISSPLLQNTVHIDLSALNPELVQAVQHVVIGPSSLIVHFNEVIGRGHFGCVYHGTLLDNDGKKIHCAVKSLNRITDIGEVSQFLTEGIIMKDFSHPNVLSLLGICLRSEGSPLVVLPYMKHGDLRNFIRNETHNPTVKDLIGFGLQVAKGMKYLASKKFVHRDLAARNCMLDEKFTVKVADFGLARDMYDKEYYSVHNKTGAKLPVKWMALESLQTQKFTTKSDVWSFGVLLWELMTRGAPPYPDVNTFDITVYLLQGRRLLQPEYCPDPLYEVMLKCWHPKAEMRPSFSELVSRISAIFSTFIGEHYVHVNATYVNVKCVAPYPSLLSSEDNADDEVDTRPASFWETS
Chain of RON (Q04912 25-1400, species assumed): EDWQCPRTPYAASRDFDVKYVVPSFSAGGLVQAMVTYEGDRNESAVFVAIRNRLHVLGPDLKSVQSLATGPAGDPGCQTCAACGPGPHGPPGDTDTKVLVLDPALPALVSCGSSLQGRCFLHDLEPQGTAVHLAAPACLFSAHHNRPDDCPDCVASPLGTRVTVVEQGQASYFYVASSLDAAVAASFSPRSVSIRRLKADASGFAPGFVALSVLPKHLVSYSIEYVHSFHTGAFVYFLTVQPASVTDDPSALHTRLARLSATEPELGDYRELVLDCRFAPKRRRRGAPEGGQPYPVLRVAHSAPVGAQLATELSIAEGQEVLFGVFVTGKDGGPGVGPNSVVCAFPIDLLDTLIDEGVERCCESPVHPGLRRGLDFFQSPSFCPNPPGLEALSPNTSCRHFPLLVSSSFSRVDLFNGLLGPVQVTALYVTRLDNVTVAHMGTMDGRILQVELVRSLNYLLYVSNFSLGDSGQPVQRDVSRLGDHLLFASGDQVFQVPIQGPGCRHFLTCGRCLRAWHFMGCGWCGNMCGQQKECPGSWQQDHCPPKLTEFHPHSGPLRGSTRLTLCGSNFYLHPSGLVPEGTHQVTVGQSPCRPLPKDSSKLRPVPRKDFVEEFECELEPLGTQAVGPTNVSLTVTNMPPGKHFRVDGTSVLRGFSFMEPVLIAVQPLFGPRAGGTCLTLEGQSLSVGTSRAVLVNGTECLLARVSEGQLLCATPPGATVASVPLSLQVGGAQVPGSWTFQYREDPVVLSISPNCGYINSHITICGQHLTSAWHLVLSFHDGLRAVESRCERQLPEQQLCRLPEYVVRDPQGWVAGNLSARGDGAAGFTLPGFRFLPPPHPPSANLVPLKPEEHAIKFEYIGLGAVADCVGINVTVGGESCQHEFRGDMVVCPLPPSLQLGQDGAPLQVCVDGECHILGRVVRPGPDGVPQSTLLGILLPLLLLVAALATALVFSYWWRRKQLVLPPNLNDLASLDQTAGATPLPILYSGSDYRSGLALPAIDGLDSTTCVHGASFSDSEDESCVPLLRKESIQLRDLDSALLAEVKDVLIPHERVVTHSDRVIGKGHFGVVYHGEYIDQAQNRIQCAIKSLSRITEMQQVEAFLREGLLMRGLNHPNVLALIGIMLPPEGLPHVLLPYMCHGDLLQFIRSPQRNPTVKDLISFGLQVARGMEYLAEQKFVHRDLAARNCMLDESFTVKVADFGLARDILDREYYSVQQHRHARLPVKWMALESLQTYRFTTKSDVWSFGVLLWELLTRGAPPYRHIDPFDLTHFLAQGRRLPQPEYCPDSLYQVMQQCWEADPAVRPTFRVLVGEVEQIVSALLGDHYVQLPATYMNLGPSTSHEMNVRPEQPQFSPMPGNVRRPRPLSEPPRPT

Structure (SMILES)	IC50 (RON)	IC50 (cMET)
Nc1ncnc(Oc2ccc(NC(=O)c3cnn(-c4cc(O)ccn4)c3C(F)(F)F)cc2F)c1Cl [Example 64, N-[4-(6-amino-5-chloro-pyrimidin-4-yl)oxy-3-fluoro-phenyl]-1-(4-hydroxy-2-pyridyl)-5-(trifluoromethyl)pyrazole-4-carboxamide]	50 to 500 nM	> 5000 nM
Cc1cccc(-n2ncc(C(=O)Nc3ccc(Oc4ncnc(N)c4Cl)c(F)c3)c2C(F)(F)F)n1 [Example 49, N-[4-(6-amino-5-chloro-pyrimidin-4-yl)oxy-3-fluoro-phenyl]-1-(6-methyl-2-pyridyl)-5-(trifluoromethyl)pyrazole-4-carboxamide]	500 to 5000 nM	> 5000 nM
CCc1c(C(=O)Nc2ccc(Oc3ccnc(N)c3Cl)c(F)c2)cnn1-c1cccnc1 [Example 5, N-(4-((2-amino-3-chloropyridin-4-yl)oxy)-3-fluorophenyl)-5-ethyl-1-(pyridin-3-yl)-1H-pyrazole-4-carboxamide]	50 to 500 nM	500 to 5000 nM
O=C(Nc1ccc(Oc2ncnc(NC3CC3)c2Cl)c(F)c1)c1cnn(-c2ncccc2F)c1C(F)(F)F [Example 65, N-[4-[5-chloro-6-(cyclopropylamino)pyrimidin-4-yl]oxy-3-fluoro-phenyl]-1-(3-fluoro-2-pyridyl)-5-(trifluoromethyl)pyrazole-4-carboxamide]	500 to 5000 nM	> 5000 nM
Nc1ncnc(Oc2ccc(NC(=O)c3cnn(-c4ccc(F)cn4)c3C(F)(F)F)cc2F)c1Cl [Example 50, N-[4-(6-amino-5-chloro-pyrimidin-4-yl)oxy-3-fluoro-phenyl]-1-(5-fluoro-2-pyridyl)-5-(trifluoromethyl)pyrazole-4-carboxamide]	50 to 500 nM	> 5000 nM
Nc1nccc(Oc2ccc(NC(=O)c3cnn(-c4ccc(F)nn4)c3C(F)(F)F)cc2F)c1Cl [Example 30, N-(4-((2-amino-3-chloropyridin-4-yl)oxy)-3-fluorophenyl)-1-(6-fluoropyridazin-3-yl)-5-(trifluoromethyl)-1H-pyrazole-4-carboxamide]	500 to 5000 nM	> 5000 nM
CCc1c(C(=O)Nc2ccc(Oc3ccnc(N)c3Cl)c(F)c2)cnn1-c1ncccc1Cl [Example 36, N-(4-((2-amino-3-chloropyridin-4-yl)oxy)-3-fluorophenyl)-1-(3-chloropyridin-2-yl)-5-ethyl-1H-pyrazole-4-carboxamide]	50 to 500 nM	500 to 5000 nM
Cc1ccnc(-n2ncc(C(=O)Nc3ccc(Oc4ccnc(N)c4Cl)c(F)c3)c2C(F)(F)F)n1 [Example 23, N-(4-((2-amino-3-chloropyridin-4-yl)oxy)-3-fluorophenyl)-1-(4-methylpyrimidin-2-yl)-5-(trifluoromethyl)-1 H-pyrazole-4-carboxamide]	50 to 500 nM	> 5000 nM

The next lines start with the values.

IC50 (RON)	IC50 (cMET)	Structure (SMILES)
< 50 nM	500 to 5000 nM	CCc1c(C(=O)Nc2ccc(Oc3ccnc(N)c3I)c(F)c2)cnn1-c1ncccc1Cl [Example 38, N-(4-((2-amino-3-iodopyridin-4-yl)oxy)-3-fluorophenyl)-1-(3-chloropyridin-2-yl)-5-ethyl-1H-pyrazole-4-carboxamide]
< 50 nM	> 5000 nM	CC(C)Nc1c(Oc2ccc(NC(=O)c3cnn(-c4ncccc4F)c3C(F)(F)F)cc2F)ccnc1N [Example 34, N-(4-((2-amino-3-(isopropylamino)pyridin-4-yl)oxy)-3-fluorophenyl)-1-(3-fluoropyridin-2-yl)-5-(trifluoromethyl)-1H-pyrazole-4-carboxamide]
< 50 nM	500 to 5000 nM	CCc1c(C(=O)Nc2ccc(Oc3ccnc(N)c3I)c(F)c2)cnn1-c1ncccc1F [Example 37, N-(4-((2-amino-3-iodopyridin-4-yl)oxy)-3-fluorophenyl)-5-ethyl-1-(3-fluoropyridin-2-yl)-1H-pyrazole-4-carboxamide]
< 50 nM	> 5000 nM	Nc1nccc(Oc2ccc(NC(=O)c3cnn(-c4ncccn4)c3C(F)(F)F)cc2F)c1Cl [Example 21, N-(4-((2-amino-3-chloropyridin-4-yl)oxy)-3-fluorophenyl)-1-(pyrimidin-2-yl)-5-(trifluoromethyl)-1H-pyrazole-4-carboxamide]
< 50 nM	500 to 5000 nM	Nc1nccc(Oc2ccc(NC(=O)c3cnn(-c4ncccc4Cl)c3C(F)(F)F)cc2F)c1Cl [Example 10, N-(4-((2-amino-3-chloropyridin-4-yl)oxy)-3-fluorophenyl)-1-(3-chloropyridin-2-yl)-5-(trifluoromethyl)-1H-pyrazole-4-carboxamide]
< 50 nM	> 5000 nM	Nc1cc(Oc2ccc(NC(=O)c3cnn(-c4ncccc4F)c3C(F)(F)F)cc2F)ccn1 [Example 31, N-(4-((2-aminopyridin-4-yl)oxy)-3-fluorophenyl)-1-(3-fluoropyridin-2-yl)-5-(trifluoromethyl)-1H-pyrazole-4-carboxamide]
< 50 nM	500 to 5000 nM	Nc1nccc(Oc2ccc(NC(=O)c3cnn(-c4ncccc4F)c3C(F)(F)F)c(F)c2)c1Cl [Example 32, N-(4-((2-amino-3-chloropyridin-4-yl)oxy)-2-fluorophenyl)-1-(3-fluoropyridin-2-yl)-5-(trifluoromethyl)-1H-pyrazole-4-carboxamide]
